Data published in PMC11108815 (Heliyon, 2024).
Marks after values point to notes of the source that are not given here.

Experiments:
[1] = Pharmacokinetics in rat plasma; format: in vivo, Wistar rats; details: for AUC(0-inf): AUC0-∞; for CL/F: CLz/F; for MRT last: MRT0-t; for MRT inf: MRT0-∞
[2] = Stability test of QC samples; format: physicochemical, rat
[3] = rats, oral, 12.5 to 50 mg kg^−1; cited from earlier work
[4] = Wistar, rat, plasma, po, 100 mg/kg, AUC0-t, FS-C: normal (blank) rats, oral FS 100 mg kg^−1, n = 6
[5] = Wistar, rat, plasma, po, 100 mg/kg, AUC0-t, FT-C: normal (blank) rats, oral FT 100 mg kg^−1, n = 6
[6] = Wistar, rat, plasma, po, 100 mg/kg, FS-C: normal (blank) rats, oral FS 100 mg kg^−1, n = 6
[7] = Wistar, rat, plasma, po, 100 mg/kg, FT-C: normal (blank) rats, oral FT 100 mg kg^−1, n = 6
[8] = Wistar, rat, plasma, po, 100 mg/kg, Cmax, FS-C: normal (blank) rats, oral FS 100 mg kg^−1, n = 6
[9] = Wistar, rat, plasma, po, 100 mg/kg, Cmax, FT-C: normal (blank) rats, oral FT 100 mg kg^−1, n = 6
[10] = Wistar, rat, plasma, po, 100 mg/kg, T1/2, FS-C: normal (blank) rats, oral FS 100 mg kg^−1, n = 6
[11] = Wistar, rat, plasma, po, 100 mg/kg, T1/2, FT-C: normal (blank) rats, oral FT 100 mg kg^−1, n = 6
[12] = Wistar, rat, plasma, po, 100 mg/kg, Tmax, FS-C: normal (blank) rats, oral FS 100 mg kg^−1, n = 6
[13] = Wistar, rat, plasma, po, 100 mg/kg, Tmax, FT-C: normal (blank) rats, oral FT 100 mg kg^−1, n = 6
[14] = Wistar, rat, plasma, po, 100 mg/kg, Tmax, control group, after oral administration of FS or FT
[15] = Store at 4 °C for 24 h, high concentration QC sample in rat plasma
[16] = Store at 4 °C for 24 h, low concentration QC sample in rat plasma
[17] = Store at 4 °C for 24 h, medium concentration QC sample in rat plasma
[18] = Store at room temperature for 12 h, high concentration QC sample in rat plasma
[19] = Store at room temperature for 12 h, low concentration QC sample in rat plasma
[20] = Store at room temperature for 12 h, medium concentration QC sample in rat plasma
[21] = Store at −20 °C for 20 days, high concentration QC sample in rat plasma
[22] = Store at −20 °C for 20 days, low concentration QC sample in rat plasma
[23] = Store at −20 °C for 20 days, medium concentration QC sample in rat plasma
[24] = Three freeze-thaw cycles, high concentration QC sample in rat plasma
[25] = Three freeze-thaw cycles, low concentration QC sample in rat plasma
[26] = Three freeze-thaw cycles, medium concentration QC sample in rat plasma
[27] = FS-C: normal (blank) rats, oral FS 100 mg kg^−1, n = 6
[28] = FS-M: microcirculation dysfunction model rats, oral FS 100 mg kg^−1, n = 6
[29] = FT-C: normal (blank) rats, oral FT 100 mg kg^−1, n = 6
[30] = FT-M: microcirculation dysfunction model rats, oral FT 100 mg kg^−1, n = 6

For O=C(/C=C/c1ccc(O)c(O)c1)O[C@H](Cc1ccc(O)c(O)c1)C(=O)O [Rosmarinic acid], the AUC(0-t) [1, 4] was 218 ± 14.9 ng·h/mL, the AUC(0-t) [1, 5] was 104 ± 17.2 ng·h/mL and the AUC(0-inf) [1, 6] was 222 ± 20.6 ng·h/mL. The AUC(0-inf) [1, 7] was 109 ± 28.6 ng·h/mL, the CL/F [1, 6] was 2060 mL/min/kg and the CL/F [1, 7] was 3430 mL/min/kg. The Cmax [1, 8] was 54.5 ± 5.34 ng/mL, the Cmax [1, 9] was 16.4 ± 4.28 ng/mL and the MRT last [1, 6] was 5.01 ± 0.38 h. It also gave an MRT last [1, 7] of 7.95 ± 1.33 h, an MRT inf [1, 6] of 5.48 ± 1.41 h and an MRT inf [1, 7] of 8.82 ± 3.43 h. The half-life [1, 10] was 2.42 ± 2.5 h, the half-life [1, 11] was 2.91 ± 3.72 h and the Tmax [1, 12] was 0.39 ± 0.09 h. For the same compound, the Tmax [1, 13] was 0.22 ± 0.09 h, the Tmax [1, 14] was less than 0.39 h and the “MRT0-t after oral FT compared with the FS group” value ([1]; both before and after modeling) was “increased”. For the same compound, the “CLz/F in FT compared with FS” value ([1]; normal group, p < 0.01) was “higher”, the “AUC0-t in FT compared with FS” value ([1]; normal group, p < 0.01, 0.05) was “significantly lower” and the “AUC0-∞ in FT compared with FS” value ([1]; normal group, p < 0.01, 0.05) was “significantly lower”. The “Cmax in FT compared with FS” value ([1]; normal group, p < 0.01, 0.05) was “significantly lower”, the “Cmax after modeling compared with control group” value ([1]; oral administration of FS) was “increased” and the “Stability, Accuracy (RE, %)” value [2, 15] was 5.57%. The “Stability, Accuracy (RE, %)” value [2, 16] was −6.18%, the “Stability, Accuracy (RE, %)” value [2, 17] was 0.63% and the “Stability, Accuracy (RE, %)” value [2, 18] was −10.92%. For the same compound, the “Stability, Accuracy (RE, %)” value [2, 19] was −3.95%, the “Stability, Accuracy (RE, %)” value [2, 20] was −0.80% and the “Stability, Accuracy (RE, %)” value [2, 21] was 0.99%. The “Stability, Accuracy (RE, %)” value [2, 22] was 1.19%, the “Stability, Accuracy (RE, %)” value [2, 23] was 6.02% and the “Stability, Accuracy (RE, %)” value [2, 24] was −4.84%. For the same compound, the “Stability, Accuracy (RE, %)” value [2, 25] was 1.82%, the “Stability, Accuracy (RE, %)” value [2, 26] was −0.56% and the pharmacokinetic characteristics [3] was “fast absorption, moderate elimination and low absolute bioavailability”.

O=C(/C=C/c1ccc(O)c(O)c1/C=C/c1ccc(O)c(O)c1)O[C@H](Cc1ccc(O)c(O)c1)C(=O)O [Salvianolic acid A] gave an AUC(0-t) [1, 4] of 107 ± 46.1 ng·h/mL, an AUC(0-t) [1, 5] of 122 ± 30.9 ng·h/mL and an AUC(0-inf) [1, 6] of 168 ± 139 ng·h/mL. For the same compound, the AUC(0-inf) [1, 7] was 162 ± 87.3 ng·h/mL, the CL/F [1, 6] was 74.8 mL/min/kg and the CL/F [1, 7] was 37 mL/min/kg. For the same compound, the Cmax [1, 8] was 13.2 ± 8.35 ng/mL, the Cmax [1, 9] was 8.58 ± 1.35 ng/mL and the MRT last [1, 6] was 7.12 ± 2.26 h. It also gave an MRT last [1, 7] of 8.8 ± 1.62 h, an MRT inf [1, 6] of 17 ± 17.6 h and an MRT inf [1, 7] of 15 ± 11.6 h. For the same compound, the half-life [1, 10] was 9.92 ± 13.7 h, the half-life [1, 11] was 7.38 ± 9.48 h and the Tmax [1, 12] was 0.63 ± 0.42 h. The Tmax [1, 13] was 0.56 ± 0.36 h, the Tmax [1, 14] was greater than 0.47 h and the “shape of the drug-time curve” value ([1]; both the control and model groups treated with oral FS or FT) was “bimodal phenomenon”. The “Stability, Accuracy (RE, %)” value [2, 15] was −0.93%, the “Stability, Accuracy (RE, %)” value [2, 16] was 1.81% and the “Stability, Accuracy (RE, %)” value [2, 17] was 11.49%. For the same compound, the “Stability, Accuracy (RE, %)” value [2, 18] was 3.31%, the “Stability, Accuracy (RE, %)” value [2, 19] was −1.96% and the “Stability, Accuracy (RE, %)” value [2, 20] was −3.89%. The “Stability, Accuracy (RE, %)” value [2, 21] was 2.45%, the “Stability, Accuracy (RE, %)” value [2, 22] was 7.09% and the “Stability, Accuracy (RE, %)” value [2, 23] was −9.12%. The “Stability, Accuracy (RE, %)” value [2, 24] was −10.32%, the “Stability, Accuracy (RE, %)” value [2, 25] was 1.08% and the “Stability, Accuracy (RE, %)” value [2, 26] was 11.33%.

With O=C(/C=C/c1ccc(O)c2oc(-c3ccc(O)c(O)c3)cc12)O[C@H](Cc1ccc(O)c(O)c1)C(=O)O [Salvianolic acid C] the “AUC0-∞” value [1, 27] was 33.09 ± 32.59 ng·h/mL, the AUC(0-t) [1, 27] was 30.14 ± 25.77 ng·h/mL and the CLz/F [1, 27] was 1061 ± 557.5 mL/min/kg. The Cmax [1, 27] was 11.01 ± 2.17 ng/mL, the MRT0-t [1, 27] was 3.65 ± 4.31 h and the “MRT0-∞” value [1, 27] was 4.61 ± 6.46 h. For the same compound, the T1/2 [1, 27] was 7.30 ± 4.55 h, the Tmax [1, 27] was 0.67 ± 0.26 h and the “AUC0-∞” value [1, 28] was 55.32 ± 49.60 ng·h/mL. The AUC(0-t) [1, 28] was 39.25 ± 24.96 ng·h/mL, the CLz/F [1, 28] was 689.2 ± 416.2 mL/min/kg and the Cmax [1, 28] was 11.09 ± 3.14 ng/mL. For the same compound, the MRT0-t [1, 28] was 4.52 ± 4.05 h, the “MRT0-∞” value [1, 28] was 10.25 ± 12.88 h and the T1/2 [1, 28] was 8.45 ± 8.99 h. For the same compound, the Tmax [1, 28] was 0.75 ± 0.27 h, the “AUC0-∞” value [1, 29] was 30.07 ± 23.22 ng·h/mL and the AUC(0-t) [1, 29] was 29.34 ± 21.99 ng·h/mL. For the same compound, the CLz/F [1, 29] was 1134 ± 771.3 mL/min/kg, the Cmax [1, 29] was 7.05 ± 1.64 ^b μg·L^−1 and the MRT0-t [1, 29] was 4.27 ± 3.46 h. The “MRT0-∞” value [1, 29] was 4.55 ± 3.95 h, the T1/2 [1, 29] was 3.31 ± 1.82 h and the Tmax [1, 29] was 0.28 ± 0.14 ^b h. For the same compound, the “AUC0-∞” value [1, 30] was 40.99 ± 46.75 ng·h/mL, the AUC(0-t) [1, 30] was 29.64 ± 22.98 ng·h/mL and the CLz/F [1, 30] was 1061 ± 726.2 mL/min/kg. The Cmax [1, 30] was 8.95 ± 6.01 ng/mL, the MRT0-t [1, 30] was 3.90 ± 3.23 h and the “MRT0-∞” value [1, 30] was 8.76 ± 14.72 h. For the same compound, the T1/2 [1, 30] was 10.67 ± 9.80 h, the Tmax [1, 30] was 1.22 ± 0.66 ^f h and the “Cmax in FT compared with FS” value ([1]; normal group, p < 0.01, 0.05) was “significantly lower”. The “Stability, Accuracy (RE, %)” value [2, 15] was 7.30%, the “Stability, Accuracy (RE, %)” value [2, 16] was −9.02% and the “Stability, Accuracy (RE, %)” value [2, 17] was −3.01%. For the same compound, the “Stability, Accuracy (RE, %)” value [2, 18] was −13.32%, the “Stability, Accuracy (RE, %)” value [2, 19] was 4.15% and the “Stability, Accuracy (RE, %)” value [2, 20] was 1.94%. For the same compound, the “Stability, Accuracy (RE, %)” value [2, 21] was −1.60%, the “Stability, Accuracy (RE, %)” value [2, 22] was −1.94% and the “Stability, Accuracy (RE, %)” value [2, 23] was 4.74%. For the same compound, the “Stability, Accuracy (RE, %)” value [2, 24] was −3.54%, the “Stability, Accuracy (RE, %)” value [2, 25] was −5.18% and the “Stability, Accuracy (RE, %)” value [2, 26] was 7.92%.
